# Measurements taken from US20150093744A1 (priority 2013, published 2015).
# Values joined by “and” are separate entries in the source; they are usually repeats but may differ in a detail not shown here. Equal entries are not always repeated. Where two headings read alike, the source gives them in different places.
# Columns and labels:
# [1] = test system: TV; conditions: cited from earlier work
# [2] = test system: Tulane virus (TV)
# [3] = test system: Tulane virus capsid binding to Human Blood Group Antigen (HBGA) receptor
# [4] = test system: FCV; conditions: cited from earlier work
# [5] = test system: HuNoV (GII.4 NoV)
# [6] = test system: MNV; conditions: cited from earlier work
# [7] = test system: Tulane virus (TV); remark: listed apart in the source
# [8] = test system: Tulane virus (TV); remark: listed apart in the source
smiles,measurement,setting,value
"CCO [EtOH, ethanol]",EtOH concentration required to exceed 4 D reduction in virus titer,[1],50-70%
same,detection of virus genome or amplification of virus,[2],neither virus genome nor amplification of virus was detectable
same,Binding of viral capsid to Human Blood Group Antigen (HBGA),[3],significantly reduced
same,EtOH concentration required to exceed 4 D reduction in virus titer,[4],70%
same,Ct,[5],40.7 ± 1.4
same,Reduction(%),[5],99.3 ± 0.8%
same,completeness of inactivation of HuNoV,[5],not complete
same,reduction in copy number,[5],99.33% and 88.5% and 99.3%
same,reduction in copy numbers,[5],< 3 log
same,ΔCt,[5],9.7
same,EtOH concentration required to exceed 4 D reduction in virus titer,[6],60%
same,reduction of TV titer,[7],over 99.5%
same,detection of virus genome or amplification of virus,[8],neither virus genome nor amplification of virus was detectable
